Test results published in patent US20050158385A1, “Coating technique for deposition of drug substance on a substrate” (priority 2002, published 2005).

Test: in vitro release (dissolution) of tablets, USP II apparatus
Format: physicochemical
Details: tablets from Trial 2 (three strands of PVDF as core), 250 ml 0.1 N HCl, 37° C., paddle 50 rpm
Description: The dimensions of the tablets from both trials were similar, as both trials yielded tablets approximately 3 mm thick. To determine the dose of 2,3:4,5-bis-O-(1-methylethylidene)-β-D-fructopyranose sulfamate in each tablet, the tablet was dissolved in 10 ml H2O/0.1 N HCl 9/1 v/v. The concentration of 2,3:4,5-bis-O-(1-methylethylidene)-β-D-fructopyranose sulfamate was analyzed by HPLC (Waters System with Millenium Software, 2690 Alliance, Waters, Milford, Mass.). A sample of 50 uL is injected into a Zorbax Eclipse (HP, Palo Alto, Calif.) column (XDB-C8, 4.6*150 mm, P/N: 993967.906). The mobile phase consists of H2O/methanol 68/32 w/w at a flow rate of 1.5 mL/min. The concentration was determined with a refractive index detector (Sensitivity 32). The peak retention time is 6.7 minutes and the run takes 14 minutes.
The in vitro release of the tablets made in this example was also determined. Four tablets from Trial 2 were placed in a USP II apparatus (SR8 plus, Hanson, Chatsworth, Calif.) containing 250 ml of 0.1 N HCl at 37° C. and a paddle rotating at 50 rpm. Dissolution was followed up to 1 hour, with samples taken after 5, 15, 30 and 60 minutes. An aliquot of 5 ml was filtered through a PTFE 0.2 micron filter. The sample was not replaced with fresh solvent. The concentration of 2,3:4,5-bis-O-(1-methylethylidene)-β-D-fructopyranose sulfamate was analyzed by HPLC as discussed above.

- 2,3:4,5-bis-O-(1-methylethylidene)-β-D-fructopyranose sulfamate released (after 5 minutes): approximately 4%
- 2,3:4,5-bis-O-(1-methylethylidene)-β-D-fructopyranose sulfamate released (by 15 minutes): about 48%
- 2,3:4,5-bis-O-(1-methylethylidene)-β-D-fructopyranose sulfamate released (in 30 minutes): complete release
Compound: CC1(C)O[C@@H]2[C@@H](CO[C@@]3(COS(N)(=O)=O)OC(C)(C)O[C@@H]23)O1 [2,3:4,5-bis-O-(1-methylethylidene)-β-D-fructopyranose sulfamate]
